Measured values taken from publication PMC7483518, “Destabilizing single chain major histocompatibility complex class I protein for repurposed enterokinase proteolysis” (Scientific Reports, 2020).
Like-named read-outs stand apart in the source and are kept apart here.

What was measured:
[1] = target: photolabile unchained HLA-A*11:01 pMHC-I protein (Homo sapiens, UniProt P04439, A114D/D185E/E176A/F33Y/L180Q/S129P/T187R); assay: ELISA with photolabile unchained pMHC-I protein and UV irradiation; assay type: binding; settings: for ELISA450nm: Table 2, 62.5 nM photolabile pMHC-I mixture, 5 μM peptide in PBS, UV 365 nm 2 × 5 min on ice, 2 h room temperature on anti-β2m plate, Abs450nm − Abs570nm, instability cutoff < 0.6
[2] = tested on: HLA-A*11:01 single chain protein; assay type: biochemical, Human; set-up: EZ50kDa / EZ50kD (pH 6.2) / EZ50kD (pH 8) / EZ50kD (normalised: EBV1101 = 1, EBV0201 = 0) / EZ50kDa rank: unit not given beside the values; settings: for EZ50kDa rank: HLA-A*11:01 single chain protein, 9-mer peptides;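 as to EZ50kD (pH 6.2): scaled with positive control peptide as 1 and negative control peptide as 0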
[3] = EASY MHC-I A*11:01, run 2019-08-08, 5min, mean of 2 replicates

| Sequence | ELISA450nm [1] | EZ50kD (pH 6.2) ([2]; pH 6.2) | EZ50kD (pH 8) [2] | other results |
| --- | --- | --- | --- | --- |
| GSLLDYVRE [CS1016] |  |  |  | EASY_mean [1]: -0.02695; EZ_mean [2]: -0.06376 |
| AIKTSPKA [EX1001] |  |  |  | EASY_mean [1]: -0.01453; EZ_mean [2]: -0.04572 |
| IMQLMPFGCL [TM1026] |  |  |  | EASY_mean ([1]; ELISA signal, mean, […]): -0.02435; EZ_mean [2, 3]: -0.06176; Norm_mean [2, 3]: -0.05556 |
| LTSTVQLIMQLM [TM1041] |  |  |  | EASY_mean ([1]; […], mean, STDEV): -0.04948; EZ_mean [2]: -0.1142 |
| FIDSYICQV [reference compound] | 0.3491 |  |  |  |
| ATVLMGLGK [reference compound] | 1.911 |  |  | EZ50kD (pH 6.2) ([2]; Table 2, pH 6.2, 37 °C, enterokinase, Eq. (4), instability cutoff < 0.3): 1.039 |
| TSTVQLIMQLMP [TM1042] |  |  |  | EASY_mean ([1]; ELISA signal, mean, […]): -0.04181; EZ_mean [2]: -0.1051 |
| VQLITQLMPFGS [CS1039] |  |  |  | EASY_mean [1]: -0.02003; EZ_mean [2]: -0.04039 |
| LIMQLMPFGCL [TM1036] |  |  |  | EASY_mean ([1]; ELISA signal, mean, […]): -0.07162; EZ_mean [2]: -0.1248 |
| RTQSPRRR [reference compound] | 0.3319 |  |  |  |
| RSQSPRRR [putative peptide, HBV, no IEDB entry] | 0.1859 |  |  |  |
| RTLSPRRRR [putative peptide, HBV, no IEDB entry] | 0.8658 |  |  |  |
| TVVRRRCRSPR [putative peptide, HBV, no IEDB entry] | 0.4145 |  |  |  |
| MVWESGCTV [IEDB 140,054, Human; a known HLA-A*02:01 antigen, reference compound] | 0.5937 |  |  |  |
| DLAQCFFCFK [reference compound] | 0.3956 |  |  |  |
| TTKRDLGMSK [reference compound] |  | 0.796 | 0.3796 |  |
| AINSEMFLR [reference compound] |  | 0.9012 | 1.19 | EZ50kDa rank ([2]; pH 6.2, 37 °C): 0.901 |
| TTYLGPLSCK [reference compound] |  | 1.084 | 1.911 |  |
| TVVGRRGRSPR [putative peptide, HBV, no IEDB entry] | 1.259 |  |  |  |
| LMPFGSLLDYVR [CS1045] |  |  |  | EASY_mean [1]: 0.002285 |
| TMVMELIRMIK [reference compound] | 0.748 |  |  |  |
| GSLLDYVREH [CS1026] |  |  |  | EASY_mean [1]: -0.04117 |

| Sequence | ELISA450nm [1] | EZ50kD (pH 6.2) ([2]; pH 6.2) | EZ50kD (pH 8) [2] | other results |
| --- | --- | --- | --- | --- |
| MSYTMCSGK [reference compound] |  | 1.198 | 1.094 | EZ50kDa rank ([2]; pH 6.2, 37 °C): 1.198 |
| SVQPTFSVQR [reference compound] |  | 1.051 | 0.7376 |  |
| KFLPDLYDYK [reference compound] | 0.4809 |  |  |  |
| PFGSLLDYVRE [CS1035] |  |  |  | EASY_mean [1]: -0.00332 |
| LLAQFTSAL [putative peptide, HBV, no IEDB entry] | 0.214 |  |  |  |
| AVQTKPGLFK [reference compound] |  | 0.955 | 1.546 |  |
| VTRGAVLMHK [reference compound] |  | 0.6228 |  |  |
| LVSFLLLAGR [reference compound] |  |  | 0.07206 |  |
| NILNPFLPLL [putative peptide, HBV, no IEDB entry] | 0.2827 |  |  |  |
| STLPETTVIR [putative peptide, HBV, no IEDB entry] | 1.302 |  |  |  |
| ATYGWNLVK [reference compound] |  | 0.8706 | 1.994 |  |
| MVSRLLLNR [reference compound] |  | 1.196 | 0.2396 |  |
| TVVRRRCR [putative peptide, HBV, no IEDB entry] | 0.4625 |  |  |  |
| FTNDSIISH [reference compound] |  | 0.6961 | 0.1339 | EZ50kDa rank ([2]; pH 6.2, 37 °C): 0.696 |
| ATVQGQNLK [reference compound] |  | 0.8968 | 0.767 |  |
| GAMLFLISGK [reference compound] |  | 0.7468 | 1.036 |  |
| RTQSPRRRR [reference compound] | 1.204 |  |  |  |
| GSLLDYVREHKD [CS1049] |  |  |  | EASY_mean [1]: -0.02126 |
| KTFVDLMRR [reference compound] |  | 0.8241 | 0.165 |  |
| RTLSPRRR [putative peptide, Streptomyces sp, no IEDB entry] | 0.1209 |  |  |  |
| TSGSPIIDK [reference compound] |  | 0.7953 | 0.1596 | EZ50kDa rank ([2]; pH 6.2, 37 °C): 0.795 |
